In the SangsterLogP compilation:

Test: method code SF-CR, from PMID: 5159517

logP: 0.41
SMILES: COc1cnc(NS(=O)(=O)c2ccc(N)cc2)nc1
